This note sets out measurements from the supplement of paper PMC10627819.

Each structure is given as a SMILES string.

Common to all, as to assay: Bliss interaction score (quartile over a dose matrix) (fitness difference); higher = more antagonism (negative = synergy)
One test relates to S. pneumoniae D39V. The essentials: (§1)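 The Bliss score is observed minus expected fitness under the product model, reported as quartiles over technical, biological and donor/recipient replicates. Fitness is the OD595 at entry into stationary phase divided by the plate's robust no-drug mean and capped at 1. Single-drug fitness was inferred from combination data.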
For the next test, the system named is S. aureus DSM 20231. A digest of the protocol: as §1
A further test has as its system B. subtilis 168. The essentials:
as §1

The next test has as its system S. aureus Newman. A digest of the protocol: as §1
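Also: first quartile when negative (synergy) and third quartile when positive (antagonism).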

For the molecule `C[C@@H](O)[C@H]1C(=O)N2C(C(=O)O)=C(SCCNC=N)C[C@H]12` [Imipenem] + CN[C@H](CC(C)C)C(=O)N[C@H]1C(=O)N[C@@H](CC(N)=O)C(=O)N[C@H]2C(=O)N[C@H]3C(=O)N[C@H](C(=O)N[C@H](C(=O)O)c4cc(O)cc(O)c4-c4cc3ccc4O)[C@H](O[C@H]3C[C@](C)(N)[C@@H](O)[C@H](C)O3)c3ccc(c(Cl)c3)Oc3cc2cc(c3O[C@@H]2O[C@H](CO)[C@@H](O)[C@H](O)[C@H]2O[C@H]2C[C@](C)(NCc3ccc(-c4ccc(Cl)cc4)cc3)[C@@H](O)[C@H](C)O2)Oc2ccc(cc2Cl)[C@H]1O [Oritavancin], the Bliss interaction score in the test with S. pneumoniae D39V is -0.0529; with S. aureus DSM 20231, -0.0256; with B. subtilis 168, 0.0293; with S. aureus Newman, 0.0479.

As for `C[C@@H](O)[C@H]1C(=O)N2C(C(=O)O)=C(SCCNC=N)C[C@H]12` [Imipenem] + CO[C@@H]1[C@@H](OC(N)=O)[C@@H](O)[C@H](Oc2ccc3c(O)c(NC(=O)c4ccc(O)c(CC=C(C)C)c4)c(=O)oc3c2C)OC1(C)C [Novobiocin], the Bliss interaction score in the test on S. pneumoniae D39V is -0.107; in the test on S. aureus DSM 20231, 0.0228; in the test on B. subtilis 168, -0.166; in the test on S. aureus Newman, -0.0163.

On to `C[C@@H](O)[C@H]1C(=O)N2C(C(=O)O)=C(SCCNC=N)C[C@H]12` [Imipenem] + CO[C@@]12[C@H](COC(N)=O)C3=C(C(=O)C(C)=C(N)C3=O)N1C[C@@H]1N[C@@H]12 [MitomycinC], for which the Bliss interaction score with S. pneumoniae D39V is -0.0563; with S. aureus DSM 20231 it was -0.03; in the test on B. subtilis 168, -0.0977; in the test with S. aureus Newman, 0.0577.

For the molecule `C[C@@H](O)[C@H]1C(=O)N2C(C(=O)O)=C(SCCNC=N)C[C@H]12` [Imipenem] + COc1cc(Cc2cnc(N)nc2N)cc(OC)c1OC [Trimethoprim], the Bliss interaction score is 0.153 in the test with S. pneumoniae D39V, -0.0457 in the test with S. aureus DSM 20231, -0.127 with B. subtilis 168 and -0.0308 with S. aureus Newman.

For `C[C@@H](O)[C@H]1C(=O)N2C(C(=O)O)=C(SCCNC=N)C[C@H]12` [Imipenem] + Oc1cc(Cl)ccc1Oc1ccc(Cl)cc1Cl [Triclosan], the Bliss interaction score in the test on S. pneumoniae D39V was 0.0753; with S. aureus DSM 20231 it was 0.0376; in the test on B. subtilis 168, -0.0589; in the test with S. aureus Newman, 0.0211.

For the molecule `CCC[C@@H]1C[C@@H](C(=O)N[C@@H]([C@H]2O[C@H](SC)[C@H](O)[C@@H](O)[C@H]2O)[C@@H](C)O)N(C)C1` [Lincomycin] + CC1(C)S[C@@H]2[C@H](NC(=O)Cc3ccccc3)C(=O)N2[C@H]1C(=O)O [PenicillinG], the Bliss interaction score with S. pneumoniae D39V was found to be 0.0998; with S. aureus DSM 20231 it was 0.0494; with B. subtilis 168 it was 0.0736; in the test on S. aureus Newman it was 0.0805.

For `CCC[C@@H]1C[C@@H](C(=O)N[C@@H]([C@H]2O[C@H](SC)[C@H](O)[C@@H](O)[C@H]2O)[C@@H](C)O)N(C)C1` [Lincomycin] + CC[C@H]1OC(=O)[C@H](C)C(=O)[C@H](C)[C@@H](O[C@@H]2O[C@H](C)C[C@H](N(C)C)[C@H]2O)[C@](C)(OC)C[C@@H](C)C(=O)[C@H](C)[C@H]2N(CCCCn3cnc(-c4cccnc4)c3)C(=O)O[C@]12C [Telithromycin], the Bliss interaction score in the test on S. pneumoniae D39V is -0.171; in the test on S. aureus DSM 20231, -0.053; in the test with B. subtilis 168 it was 0.091; with S. aureus Newman it was -0.0488.

For the molecule `CCC[C@@H]1C[C@@H](C(=O)N[C@@H]([C@H]2O[C@H](SC)[C@H](O)[C@@H](O)[C@H]2O)[C@@H](C)O)N(C)C1` [Lincomycin] + CN[C@H](CC(C)C)C(=O)N[C@H]1C(=O)N[C@@H](CC(N)=O)C(=O)N[C@H]2C(=O)N[C@H]3C(=O)N[C@H](C(=O)N[C@H](C(=O)O)c4cc(O)cc(O)c4-c4cc3ccc4O)[C@H](O[C@H]3C[C@](C)(N)[C@@H](O)[C@H](C)O3)c3ccc(c(Cl)c3)Oc3cc2cc(c3O[C@@H]2O[C@H](CO)[C@@H](O)[C@H](O)[C@H]2O[C@H]2C[C@](C)(NCc3ccc(-c4ccc(Cl)cc4)cc3)[C@@H](O)[C@H](C)O2)Oc2ccc(cc2Cl)[C@H]1O [Oritavancin], the Bliss interaction score in the test on S. pneumoniae D39V was 0.0612; in the test on S. aureus DSM 20231 it was -0.0375; in the test with B. subtilis 168, 0.0264; with S. aureus Newman, -0.0583.

As for `CCC[C@@H]1C[C@@H](C(=O)N[C@@H]([C@H]2O[C@H](SC)[C@H](O)[C@@H](O)[C@H]2O)[C@@H](C)O)N(C)C1` [Lincomycin] + CO[C@@]12[C@H](COC(N)=O)C3=C(C(=O)C(C)=C(N)C3=O)N1C[C@@H]1N[C@@H]12 [MitomycinC], the Bliss interaction score with S. pneumoniae D39V was -0.0879; with S. aureus DSM 20231, -0.0874; with B. subtilis 168, 0.0735; in the test with S. aureus Newman, -0.0572.

`CCC[C@@H]1C[C@@H](C(=O)N[C@@H]([C@H]2O[C@H](SC)[C@H](O)[C@@H](O)[C@H]2O)[C@@H](C)O)N(C)C1` [Lincomycin] + Oc1cc(Cl)ccc1Oc1ccc(Cl)cc1Cl [Triclosan]: the Bliss interaction score in the test with S. pneumoniae D39V was -0.119; with S. aureus DSM 20231, -0.224; in the test on B. subtilis 168, -0.0218; in the test with S. aureus Newman, 0.0423.

Turning to `COc1c(N2C[C@@H]3CCCN[C@@H]3C2)c(F)cc2c(=O)c(C(=O)O)cn(C3CC3)c12` [Moxifloxacin] + C/C(=C\C(=O)OCCCCCCCCC(=O)O)C[C@@H]1OC[C@H](C[C@@H]2O[C@H]2[C@@H](C)[C@H](C)O)[C@@H](O)[C@H]1O [Pseudomonic acid], the Bliss interaction score is 0.072 with S. pneumoniae D39V, -0.019 in the test with S. aureus DSM 20231, 0.0399 in the test on B. subtilis 168 and 0.0227 in the test with S. aureus Newman.

`COc1c(N2C[C@@H]3CCCN[C@@H]3C2)c(F)cc2c(=O)c(C(=O)O)cn(C3CC3)c12` [Moxifloxacin] + CC1(C)S[C@@H]2[C@H](NC(=O)Cc3ccccc3)C(=O)N2[C@H]1C(=O)O [PenicillinG]: the Bliss interaction score in the test with S. pneumoniae D39V was 0.0895; in the test on S. aureus DSM 20231 it was 0.0629; in the test on B. subtilis 168, 0.0377; with S. aureus Newman, -0.0783.

With `COc1c(N2C[C@@H]3CCCN[C@@H]3C2)c(F)cc2c(=O)c(C(=O)O)cn(C3CC3)c12` [Moxifloxacin] + CC[C@H]1OC(=O)[C@H](C)C(=O)[C@H](C)[C@@H](O[C@@H]2O[C@H](C)C[C@H](N(C)C)[C@H]2O)[C@](C)(OC)C[C@@H](C)C(=O)[C@H](C)[C@H]2N(CCCCn3cnc(-c4cccnc4)c3)C(=O)O[C@]12C [Telithromycin], the Bliss interaction score in the test on S. pneumoniae D39V came out at 0.0543; in the test on S. aureus DSM 20231 it was 0.0615; with B. subtilis 168, 0.0281; in the test with S. aureus Newman it was 0.0472.

Take `COc1c(N2C[C@@H]3CCCN[C@@H]3C2)c(F)cc2c(=O)c(C(=O)O)cn(C3CC3)c12` [Moxifloxacin] + CN[C@H](CC(C)C)C(=O)N[C@H]1C(=O)N[C@@H](CC(N)=O)C(=O)N[C@H]2C(=O)N[C@H]3C(=O)N[C@H](C(=O)N[C@H](C(=O)O)c4cc(O)cc(O)c4-c4cc3ccc4O)[C@H](O[C@H]3C[C@](C)(N)[C@@H](O)[C@H](C)O3)c3ccc(c(Cl)c3)Oc3cc2cc(c3O[C@@H]2O[C@H](CO)[C@@H](O)[C@H](O)[C@H]2O[C@H]2C[C@](C)(NCc3ccc(-c4ccc(Cl)cc4)cc3)[C@@H](O)[C@H](C)O2)Oc2ccc(cc2Cl)[C@H]1O [Oritavancin]: the Bliss interaction score is -0.052 in the test on S. pneumoniae D39V, -0.0425 with S. aureus DSM 20231, 0.024 in the test with B. subtilis 168 and 0.0436 in the test with S. aureus Newman.

As for `COc1c(N2C[C@@H]3CCCN[C@@H]3C2)c(F)cc2c(=O)c(C(=O)O)cn(C3CC3)c12` [Moxifloxacin] + Oc1cc(Cl)ccc1Oc1ccc(Cl)cc1Cl [Triclosan], the Bliss interaction score is 0.0747 in the test with S. pneumoniae D39V, -0.0397 with S. aureus DSM 20231, 0.0151 in the test with B. subtilis 168 and -0.038 with S. aureus Newman.

On to `O=C1CN(/N=C/c2ccc([N+](=O)[O-])o2)C(=O)N1` [Nitrofurantoin] + C/C(=C\C(=O)OCCCCCCCCC(=O)O)C[C@@H]1OC[C@H](C[C@@H]2O[C@H]2[C@@H](C)[C@H](C)O)[C@@H](O)[C@H]1O [Pseudomonic acid], for which the Bliss interaction score in the test on S. pneumoniae D39V is 0.0739; in the test on S. aureus DSM 20231, -0.0197; in the test on B. subtilis 168, 0.127; in the test with S. aureus Newman, -0.0266.

Take `O=C1CN(/N=C/c2ccc([N+](=O)[O-])o2)C(=O)N1` [Nitrofurantoin] + CC1(C)S[C@@H]2[C@H](NC(=O)Cc3ccccc3)C(=O)N2[C@H]1C(=O)O [PenicillinG]: the Bliss interaction score in the test on S. pneumoniae D39V was 0.13; in the test with S. aureus DSM 20231, -0.0568; in the test with B. subtilis 168, -0.0696; with S. aureus Newman, 0.0397.

As for `O=C1CN(/N=C/c2ccc([N+](=O)[O-])o2)C(=O)N1` [Nitrofurantoin] + CCCCCCCCCC(=O)N[C@@H]1[C@H]([C@@H]([C@H](O[C@H]1OC2=C3C=C4C=C2OC5=C(C=C(C=C5)[C@H]([C@H]6C(=O)N[C@@H](C7=C(C(=CC(=C7)O)OC8[C@H]([C@H]([C@@H]([C@H](O8)CO)O)O)O)C9=C(C=CC(=C9)[C@H](C(=O)N6)NC(=O)[C@@H]4NC(=O)[C@@H]1C2=CC(=CC(=C2)OC2=C(C=CC(=C2)[C@H](C(=O)N[C@H](CC2=CC(=C(O3)C=C2)Cl)C(=O)N1)N)O)O)O)C(=O)O)O[C@H]1[C@@H]([C@H]([C@@H]([C@H](O1)CO)O)O)NC(=O)C)Cl)CO)O)O [Teicoplanin], the Bliss interaction score with S. pneumoniae D39V (main component drawn) was -0.06; with S. aureus DSM 20231 (main component drawn), 0.0402; with B. subtilis 168 (main component drawn), -0.157; in the test on S. aureus Newman (main component drawn), -0.0914.

For `O=C1CN(/N=C/c2ccc([N+](=O)[O-])o2)C(=O)N1` [Nitrofurantoin] + CC[C@H]1OC(=O)[C@H](C)C(=O)[C@H](C)[C@@H](O[C@@H]2O[C@H](C)C[C@H](N(C)C)[C@H]2O)[C@](C)(OC)C[C@@H](C)C(=O)[C@H](C)[C@H]2N(CCCCn3cnc(-c4cccnc4)c3)C(=O)O[C@]12C [Telithromycin], the Bliss interaction score in the test with S. pneumoniae D39V was -0.293; with S. aureus DSM 20231, -0.0398; in the test on B. subtilis 168, -0.128; in the test with S. aureus Newman, -0.0641.
